Test results taken from ChEMBL document CHEMBL1909046, “DrugMatrix in vitro pharmacology data”.

How the values were obtained:
[1] = target: T1, Receptor-type tyrosine-protein phosphatase C (Homo sapiens, UniProt P08575); set-up: species or system Escherichia coli;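 further: inhibition of CD45 enzyme activity measured using DiFMUP as substrate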
T1 sequence (P08575 whole entry): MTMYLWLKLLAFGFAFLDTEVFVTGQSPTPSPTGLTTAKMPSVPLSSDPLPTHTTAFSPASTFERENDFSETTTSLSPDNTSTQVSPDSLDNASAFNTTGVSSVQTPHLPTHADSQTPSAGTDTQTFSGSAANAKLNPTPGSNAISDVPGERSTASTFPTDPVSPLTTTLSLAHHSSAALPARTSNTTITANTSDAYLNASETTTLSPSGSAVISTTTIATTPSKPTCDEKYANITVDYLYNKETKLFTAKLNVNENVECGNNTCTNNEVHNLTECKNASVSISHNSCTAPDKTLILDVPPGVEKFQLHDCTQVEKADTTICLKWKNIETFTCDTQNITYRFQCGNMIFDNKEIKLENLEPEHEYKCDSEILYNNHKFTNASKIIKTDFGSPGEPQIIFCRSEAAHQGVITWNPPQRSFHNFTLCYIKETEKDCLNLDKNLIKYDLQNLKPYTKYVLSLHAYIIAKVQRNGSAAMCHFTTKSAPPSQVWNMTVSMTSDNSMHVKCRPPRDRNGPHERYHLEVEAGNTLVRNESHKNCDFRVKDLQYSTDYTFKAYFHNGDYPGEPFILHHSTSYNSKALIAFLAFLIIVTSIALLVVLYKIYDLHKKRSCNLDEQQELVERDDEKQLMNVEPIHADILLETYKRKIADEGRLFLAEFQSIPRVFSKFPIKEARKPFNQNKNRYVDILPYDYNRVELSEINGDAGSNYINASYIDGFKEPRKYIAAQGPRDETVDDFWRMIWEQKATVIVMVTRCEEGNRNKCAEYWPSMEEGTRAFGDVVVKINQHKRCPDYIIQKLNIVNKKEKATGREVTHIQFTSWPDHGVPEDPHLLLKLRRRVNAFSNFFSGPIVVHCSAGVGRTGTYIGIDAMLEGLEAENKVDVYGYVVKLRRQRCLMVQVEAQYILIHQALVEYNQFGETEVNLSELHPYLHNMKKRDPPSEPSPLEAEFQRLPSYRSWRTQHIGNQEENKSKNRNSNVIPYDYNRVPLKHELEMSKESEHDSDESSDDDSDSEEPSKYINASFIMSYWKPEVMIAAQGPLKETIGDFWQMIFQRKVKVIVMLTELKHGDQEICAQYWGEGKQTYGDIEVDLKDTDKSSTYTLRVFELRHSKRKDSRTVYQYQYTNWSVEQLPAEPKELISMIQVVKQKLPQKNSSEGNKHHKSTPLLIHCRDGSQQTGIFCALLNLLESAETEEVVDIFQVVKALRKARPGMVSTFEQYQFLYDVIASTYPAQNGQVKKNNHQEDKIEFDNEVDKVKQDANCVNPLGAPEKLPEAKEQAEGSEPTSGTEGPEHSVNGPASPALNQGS

Nitric oxide synthase 1 = Nitric oxide synthase 1 (Rattus norvegicus, UniProt P29476); assay type: tissue-based, Cerebellum
Sequence of Nitric oxide synthase 1 (P29476 whole entry): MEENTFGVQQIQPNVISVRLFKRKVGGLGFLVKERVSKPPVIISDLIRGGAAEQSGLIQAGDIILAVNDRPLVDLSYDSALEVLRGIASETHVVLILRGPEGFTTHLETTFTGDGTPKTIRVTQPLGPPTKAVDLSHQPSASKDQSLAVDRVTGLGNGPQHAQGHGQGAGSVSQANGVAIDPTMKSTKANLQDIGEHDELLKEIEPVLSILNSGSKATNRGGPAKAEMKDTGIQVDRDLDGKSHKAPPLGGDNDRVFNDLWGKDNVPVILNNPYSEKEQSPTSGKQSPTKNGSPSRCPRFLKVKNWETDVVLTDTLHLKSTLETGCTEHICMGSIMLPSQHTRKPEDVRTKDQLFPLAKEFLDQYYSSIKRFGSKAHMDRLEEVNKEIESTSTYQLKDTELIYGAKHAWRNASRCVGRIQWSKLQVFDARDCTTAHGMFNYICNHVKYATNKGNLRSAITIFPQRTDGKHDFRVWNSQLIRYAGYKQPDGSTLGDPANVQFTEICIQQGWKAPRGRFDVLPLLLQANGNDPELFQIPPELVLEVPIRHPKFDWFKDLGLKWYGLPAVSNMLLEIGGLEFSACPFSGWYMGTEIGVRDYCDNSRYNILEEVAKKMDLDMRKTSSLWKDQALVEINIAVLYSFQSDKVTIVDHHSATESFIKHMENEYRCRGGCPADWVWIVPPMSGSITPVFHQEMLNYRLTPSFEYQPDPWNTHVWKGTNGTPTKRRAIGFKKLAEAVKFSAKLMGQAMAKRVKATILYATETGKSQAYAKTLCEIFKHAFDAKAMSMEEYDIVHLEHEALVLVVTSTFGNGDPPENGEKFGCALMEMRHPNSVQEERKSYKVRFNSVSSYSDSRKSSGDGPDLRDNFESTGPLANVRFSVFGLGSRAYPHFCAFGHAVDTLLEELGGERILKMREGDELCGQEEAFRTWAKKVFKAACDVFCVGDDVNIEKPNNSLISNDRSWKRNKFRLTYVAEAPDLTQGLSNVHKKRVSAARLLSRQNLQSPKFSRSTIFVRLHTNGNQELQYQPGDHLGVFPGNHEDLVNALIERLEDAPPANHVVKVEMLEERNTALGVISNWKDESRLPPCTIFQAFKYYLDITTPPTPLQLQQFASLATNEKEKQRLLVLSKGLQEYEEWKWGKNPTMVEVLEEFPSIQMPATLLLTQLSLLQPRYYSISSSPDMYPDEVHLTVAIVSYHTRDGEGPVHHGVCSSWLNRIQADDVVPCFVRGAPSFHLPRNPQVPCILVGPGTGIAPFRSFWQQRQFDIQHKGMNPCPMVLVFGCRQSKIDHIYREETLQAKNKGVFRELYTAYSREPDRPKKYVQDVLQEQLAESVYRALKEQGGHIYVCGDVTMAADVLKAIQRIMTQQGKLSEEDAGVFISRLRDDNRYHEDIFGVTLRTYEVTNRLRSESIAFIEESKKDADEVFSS

[2] = target: T2, Nitric oxide synthase, inducible (Mus musculus, UniProt P29477); set-up: species or system Escherichia coli;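 further: inhibition of iNOS enzyme activity measured with L-arginine as substrate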
T2 sequence (P29477 whole entry): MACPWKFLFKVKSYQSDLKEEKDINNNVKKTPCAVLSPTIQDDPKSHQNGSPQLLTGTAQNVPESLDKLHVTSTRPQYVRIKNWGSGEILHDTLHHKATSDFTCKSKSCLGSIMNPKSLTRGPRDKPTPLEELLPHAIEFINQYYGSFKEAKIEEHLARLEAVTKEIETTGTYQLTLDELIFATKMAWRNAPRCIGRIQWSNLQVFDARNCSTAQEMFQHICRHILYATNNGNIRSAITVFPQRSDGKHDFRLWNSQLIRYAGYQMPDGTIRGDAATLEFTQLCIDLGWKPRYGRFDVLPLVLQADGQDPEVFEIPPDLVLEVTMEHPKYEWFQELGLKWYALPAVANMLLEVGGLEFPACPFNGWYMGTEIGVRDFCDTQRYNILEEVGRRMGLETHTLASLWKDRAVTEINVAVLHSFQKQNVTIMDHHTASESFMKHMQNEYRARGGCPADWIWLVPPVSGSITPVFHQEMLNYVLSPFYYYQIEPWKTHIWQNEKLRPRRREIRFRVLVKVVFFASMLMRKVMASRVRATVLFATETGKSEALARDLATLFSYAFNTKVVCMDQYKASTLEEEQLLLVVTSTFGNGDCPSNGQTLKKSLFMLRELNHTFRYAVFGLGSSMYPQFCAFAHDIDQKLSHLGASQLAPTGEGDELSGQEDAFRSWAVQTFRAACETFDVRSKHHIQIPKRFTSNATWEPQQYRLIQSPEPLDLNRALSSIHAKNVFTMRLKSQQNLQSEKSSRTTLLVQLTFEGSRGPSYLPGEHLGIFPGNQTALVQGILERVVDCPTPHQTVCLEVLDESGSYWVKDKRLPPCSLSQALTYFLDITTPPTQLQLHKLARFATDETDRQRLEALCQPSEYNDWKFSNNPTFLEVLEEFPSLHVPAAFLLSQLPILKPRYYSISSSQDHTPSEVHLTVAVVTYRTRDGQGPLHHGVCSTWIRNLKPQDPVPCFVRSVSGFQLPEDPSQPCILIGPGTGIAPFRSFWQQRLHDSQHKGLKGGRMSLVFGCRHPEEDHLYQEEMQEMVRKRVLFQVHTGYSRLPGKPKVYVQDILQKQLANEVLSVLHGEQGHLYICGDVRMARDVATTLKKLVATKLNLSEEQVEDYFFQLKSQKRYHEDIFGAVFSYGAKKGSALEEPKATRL

Thromboxane-A synthase = target: T3, Thromboxane-A synthase (Homo sapiens, UniProt P24557); assay: biochemical; assay type: tissue-based, Platelet;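 further: enzyme inhibition assay with PGH2 supplied as substrate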
T3 sequence (P24557 whole entry): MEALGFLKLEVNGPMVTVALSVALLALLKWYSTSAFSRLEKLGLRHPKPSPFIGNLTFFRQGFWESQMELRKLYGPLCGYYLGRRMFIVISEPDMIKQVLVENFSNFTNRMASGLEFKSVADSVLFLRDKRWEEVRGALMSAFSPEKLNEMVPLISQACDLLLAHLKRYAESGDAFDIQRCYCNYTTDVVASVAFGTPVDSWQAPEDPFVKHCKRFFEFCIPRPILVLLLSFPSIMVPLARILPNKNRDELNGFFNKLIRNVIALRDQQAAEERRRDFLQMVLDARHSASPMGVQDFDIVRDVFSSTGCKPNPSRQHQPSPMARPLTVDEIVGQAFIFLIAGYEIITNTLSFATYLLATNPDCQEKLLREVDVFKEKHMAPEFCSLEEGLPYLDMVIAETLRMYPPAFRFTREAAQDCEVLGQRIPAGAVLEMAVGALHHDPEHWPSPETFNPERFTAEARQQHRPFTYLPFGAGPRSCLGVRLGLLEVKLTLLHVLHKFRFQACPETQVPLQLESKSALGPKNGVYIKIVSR
Further: in other assays of this panel Not Active means under 50% inhibition at 10 µM.

Row | Structure (SMILES) | IC50 [1] | IC50 (Nitric oxide synthase 1) | IC50 [2] | IC50 (Thromboxane-A synthase; platelet) | Ki [1] | IC50 (Thromboxane-A synthase; read-out: IC50) [µM]
1 | Cc1cccc(N(C)C(=S)Oc2ccc3ccccc3c2)c1 [TOLNAFTATE] | Not Active | Not Active | Not Active | Not Active | – | –
2 | Cc1oncc1C(=O)Nc1ccc(C(F)(F)F)cc1 [LEFLUNOMIDE] | Not Active | Not Active | Not Active | Not Active | – | –
3 | Nc1nc2ccc(OC(F)(F)F)cc2s1 [RILUZOLE] | – | Not Active | Not Active | Not Active | Not Active | –
4 | Cc1c(C)c2c(c(C)c1O)CCC(C)(COc1ccc(CC3SC(=O)NC3=O)cc1)O2 (stereo not given) [TROGLITAZONE] | Not Active | Not Active | Not Active | – | – | 2.97
5 | Cc1nc2n(c(=O)c1CCN1CCC(c3noc4cc(F)ccc34)CC1)CCCC2 [RISPERIDONE] | Not Active | Not Active | Not Active | Not Active | – | –
6 | CCCOc1ccccc1-c1nc2nn[nH]c2c(=O)[nH]1 [ZAPRINAST] | Not Active | Not Active | Not Active | Not Active | – | –
7 | CC[C@]1(O)C[C@H]2CN(CCc3c([nH]c4ccccc34)[C@@](C(=O)OC)(c3cc4c(cc3OC)N(C=O)[C@H]3[C@@](O)(C(=O)OC)[C@H](OC(C)=O)[C@]5(CC)C=CCN6CC[C@]43[C@@H]65)C2)C1 [VINCRISTINE] | Not Active | Not Active | Not Active | Not Active | – | –
8 | COc1c(C)c2c(c(O)c1C/C=C(\C)CCC(=O)O)C(=O)OC2 [MYCOPHENOLIC ACID] | Not Active | Not Active | Not Active | Not Active | – | –
9 | CSc1ccc(/C=C2/C(C)=C(CC(=O)O)c3cc(F)ccc32)cc1 [SULINDAC SULFIDE] | Not Active | Not Active | Not Active | Not Active | – | –
10 | O=NN(CCCl)C(=O)NC1CCCCC1 [LOMUSTINE] | Not Active | Not Active | Not Active | Not Active | – | –
